The text below walks through data of ChEMBL document CHEMBL5143546, “Synthesis and biological evaluation of quinolone derivatives as transthyretin amyloidogenesis inhibitors and fluorescence sensors” (Bioorg Med Chem, 2022).

pIC50: −log10 of the molar value. Some results are limits rather than exact numbers.

Series [1] addresses T1, Transthyretin (Homo sapiens, UniProt P02766). Put plainly: Inhibition of wild-type Transthyretin (unknown origin) expressed in Escherichia coli expression system assessed as acid mediated fibril formation at 3.6 uM measured after 72 hrs by UV-vis spectrophotometry. Details: scale not given: the % may be the effect or the level left.
In series [2] the target is T1, Transthyretin. Briefly: Inhibition of wild-type Transthyretin (unknown origin) expressed in Escherichia coli expression system assessed as acid mediated fibril formation at 7.2 uM measured after 72 hrs by UV-vis spectrophotometry. Details: scale not given: the % may be the effect or the level left.
Series [3] addresses T1, Transthyretin. Briefly: Inhibition of urea-induced Transthyretin denaturation in human plasma preincubated for 1 hr followed by urea addition by Western blot analysis. Format: cell-free.
The subject of series [4] is Transthyretin (Homo sapiens), P02766 [V50M]. Put plainly: Inhibition of Transthyretin V30M mutant (unknown origin) assessed as acid mediated fibril formation at 3.6 uM measured after 72 hrs by UV-vis spectrophotometry. Details: scale not given: the % may be the effect or the level left.
The test system is the same in series [5]. Briefly: Inhibition of Transthyretin V30M mutant (unknown origin) assessed as acid mediated fibril formation at 1.8 uM measured after 72 hrs by UV-vis spectrophotometry. Details: scale not given: the % may be the effect or the level left.
Series [6] can be described thus: Metabolic stability in rat liver microsome assessed as percentage of compound remaining at 1 uM measured after 30 min by LC-MS/MS analysis. In kind it is ADME. To be noted: liver microsomes, read-out: Stability. (In general: Liver microsomes are vesicles of endoplasmic reticulum, rich in cytochrome P450 enzymes.)
Series [7] in a line: Metabolic stability in rat liver microsome assessed as half life at 1 uM by LC-MS/MS analysis. In kind it is ADME. To be noted: liver microsomes.
The nature of series [8]: Metabolic stability in human liver microsome assessed as half life at 1 uM by LC-MS/MS analysis. In kind it is ADME. Particulars: liver microsomes.
Series [9] is described as follows: Metabolic stability in rat plasma assessed as percentage of compound remaining at 1 uM measured after 1 hr by LC-MS/MS analysis. Particulars: read-out: Stability. Format: ADME, cell-free.
The nature of series [10]: Metabolic stability in human liver microsome assessed as percentage of compound remaining at 1 uM measured after 30 min by LC-MS/MS analysis. In kind it is ADME. Particulars: liver microsomes, read-out: Stability.
A short description of series [11]: Metabolic stability in rat plasma assessed as half life at 1 uM by LC-MS/MS analysis. Format: ADME, cell-free.

Regarding `Cc1n[nH]c(C)c1CCc1c(C)c2ccc(N)cc2n(C)c1=O`, the results for the Activity at Transthyretin [1] and on Transthyretin [2] were 34.8% and 11.6%, respectively.

As a reminder, the pIC50 is −log10 of the IC50, conventionally taken in molar units. On to `Cc1cc(CCc2c(C)c3ccc(N)cc3n(C)c2=O)cc(C)c1O`, for which the Activity at Transthyretin [1] was 16.4%; in [4], 22.1%; in series [5], 54.8%; on Transthyretin [2] it was 2.3%. In addition, the negative logarithm of the IC50 (pIC50) against Transthyretin [3] is 4.84.

Consider `Cc1cc(CCc2c(C)c3ccc(O)cc3n(C)c2=O)cc(C)c1O`, for which the Activity at Transthyretin [1] came to 20.8%; in series [4], 26.5%; in series [5], 56.6%; at Transthyretin [2], 3.1%. The pIC50 at Transthyretin [3] is 4.86.

As for `COc1cc2c(C)c(/C=C/c3c(C)n[nH]c3C)c(=O)n(C)c2cc1N`, the Activity on Transthyretin [2] turned out to be 14.3%.

What is called half-life is how long it takes for the measured level to halve. In the case of `COc1cc2c(C)c(/C=C/c3cc(C)c(O)c(C)c3)c(=O)n(C)c2cc1N`, the results for the remaining at 0.5 h, 1 µM in [6] and in series [10] were 59.9% and 71.5%, respectively. Moreover, the Activity at Transthyretin [1] stood at 15.7%; in [4], 22.9%; in series [5] it was 55.3%; at Transthyretin [2] it was 6%. The pIC50 against Transthyretin [3] was 4.94. Besides, the half-life at 1 µM came out at 0.758 h in series [7], 1.01 h in [8] and 2.33 h in series [11]. In [9], the remaining at 1 h, 1 µM amounted to 86.8%.

In the case of `O=C(O)c1ccc2nc(-c3cc(Cl)cc(Cl)c3)oc2c1`, the values for the Activity (in series [4]; at Transthyretin [2]) were 15.9% and 3.6%, respectively.

In the case of `Cc1cc(/C=C/c2c(C)c3ccc(O)cc3n(C)c2=O)cc(C)c1O`, the Activity on Transthyretin [1] was 24.5%; on Transthyretin [2], 5.9%.

With `COc1cc2c(C)c(CCc3cc(C)c(O)c(C)c3)c(=O)n(C)c2cc1N`, the figures for the Activity on Transthyretin [1] and on Transthyretin [2] were 31.8% and 2.5%, respectively.

For `Cc1n[nH]c(C)c1/C=C/c1c(C)c2ccc(N)cc2n(C)c1=O`, the Activity is 28.1% on Transthyretin [1] and 1.8% on Transthyretin [2].

As to `Cc1cc(/C=C/c2c(C)c3ccc(N)cc3n(C)c2=O)cc(C)c1O`, the results for the remaining at 0.5 h, 1 µM in [6] and in [10] were 57.2% and 76.9%, respectively. In addition, the Activity at Transthyretin [1] is 12.8%; in series [4], 16.7%; in series [5], 49.6%; at Transthyretin [2], 3.4%. Besides, on Transthyretin [3], the pIC50 is 5.51. Moreover, the half-life at 1 µM is 0.603 h in series [7], 1.59 h in series [8] and no less than 10 h in series [11]. Moreover, in series [9], the remaining at 1 h, 1 µM was no less than 100%.
